Data: patent US20080089860A1, “Therapeutic compositions and methods useful in treating cancer” (priority 2006, published 2008)
“Also recorded” adds a separate entry of the source.

What was measured:
intracellular Flag-PRL-2 = molecular target: T1, intracellular Flag-PRL-2 (Homo sapiens, UniProt Q12974); experiment: Immunocomplex PTPase assay, Flag-PRL-2 NIH3T3 transfectants; assay type: cell-based
T1 construct: expressed in transfected cells; host or cells: NIH3T3 (pBabepuro, puromycin-selected)
Method: (§1) Immunocomplex PTPase assays were performed to assess the effects of sodium stibogluconate on intracellular PTPases. Cells were untreated or treated with sodium stibogluconate for 5 minutes, washed with fresh medium and then lysed in cold lysis buffer (50 mM Tris, pH 7.4; 150 mM NaCl; 1% NP40; 2 mM PMSF; 20 μg/ml of Aprotinin). The lysates were incubated with an anti-Flag antibody in immunoprecipitation assays. The immunocomplexes were collected with protein G sepharose beads (Pharmacia) and washed in cold lysis buffer for 4 times. […] C. for 18 hrs. 100 µL of malachite green solution (UBI) was added to each reaction prior to measurement of OD660 to quantify the amounts of free phosphate cleaved by the PTPases from the peptide substrate (Pathak et al., J. Imumol. 167, 3391 (2001)). The remaining 10% contents of individual samples were analyzed by SDS-PAGE/Western blotting to quantify the relative amounts of the phosphatase proteins. […]
(§2) The effects of sodium stibogluconate on intracellular PTPases were assessed using NIH3T3 or WM9 transfectants. […]

[1] = Toxicity in nude mice (viability, body weight); assay type: in vivo
Method: In light of the relatively rapid rate of clearance of the drug in vivo, 440 mg Sb/kg dosage was used to ensure the detection of the effectiveness of the drug for this initial study.
As discussed above, the dosage of sodium stibogluconate used for the treatment of nude mice was 12 mg Sb/mouse, s.c., daily (or approximately 440 mg/kg body weight). […] As an initial step to assess the toxicity of such a high dosage of sodium stibogluconate in nude mice, the effect of sodium stibogluconate on the viability and body weights of WM9 xenografts nude mice during the 25 day period of the study was determined.

WiT49-N1 cells = experiment: WiT49-N1 Wilms tumor cell growth, MTT assay; assay type: cell-based, human; details: day 6 culture; killing at 100 μg/ml
Method: (§3) For cell proliferation assays, cells were grown in 10% FCS culture medium containing various amounts of IFNs and/or sodium stibogluconate in 96 well plates and cultured at 37° C. for 3 or 6 days as indicated. The numbers of viable cells in proliferation assays were determined by MTT assays as described in Phatak et al., J. Immunol. 167, 3391 (2001).

Jurkat cells = experiment: IFN-gamma secretion by Jurkat cells, ELISA; assay type: cell-based, human; details: 16 hrs
Method: Jurkat cells were cultured in the absence or presence of various amounts of SSG for 16 hours. The cells and culture medium supernatants were separated by centrifugation (1,000 g, 10 min). The amounts of IFN-gamma in the culture medium supernatants were quantified using an ELISA kit (R.D. system, Minneapolis, Minn.) following the manufacturer's protocol.

DS cells = experiment: DS lymphoma cell growth, MTT assay; assay type: cell-based, human; details: day 3; IFN-alpha 1,000 u/ml
Method: as §3

[2] = tested on: A549, Hey, LoVo, SK-N-SH, U251 and DU145 cell lines; experiment: Growth of human cancer cell lines that express PRLs, MTT assay; assay type: cell-based; details: 100 μg/ml, day 6
Method: NIH3T3 (Yi, et al., Blood 85, 87 (1995)), WM9 (Forsberg, et al., Proc. Nat. Acad. Sci. USA 90, 393 (1993)), DU145 (Mickey, et al., Cancer Res. 37, 4049 (1977)), LoVo (Drewinko, et al., Cancer Res. 36, 467 (1976)), HEY (Buick, et al., Cancer Res. 45, 3668 (1985)), U251 (Yoshida, et al., Cancer 50, 410 (1982)), A549 (Giard, et al., J. Natl. Cancer Inst. 51, 1417 (1973)) and SK-N-SH (Helson, et al., Cancer Res. 35, 2594 (1975)) cell lines have been described and were cultured in RPMI 1640 supplemented with 10% fetal calf serum (FCS). For measurement of sodium stibogluconate effects on cell growth in vitro, cells were cultured in the absence (−) or presence (+) of various amounts of sodium stibogluconate for 6 days with viable cells quantified by MTT assays (Mosmann, J. Immunol. Methods 65, 55 (1983)). Percentages of growth inhibition by sodium stibogluconate were calculated (.+−.x %).

Baf3 cells = experiment: Baf3 cell proliferation assay; assay type: cell-based, murine
Method: The murine hematopoietic cell line Baf3 was maintained in RPMI 1640 medium supplemented with 10% fetal calf serum (FCS) and murine IL-3 (20 units/ml) as described previously in Damen et al., J. Biol. Chem. 270, 23402 (1995). Human myeloid cell line TF-1 was maintained in RPMI 1640 supplemented with 10% FCS and 40 ng/ml of recombinant human GM-CSF as described previously in Thomassen et al., Clin. Immunol. 95, 85 (2000). For cell proliferation assays, cells were washed in 10% FCS medium twice, resuspended in 10% FCS medium, incubated at 37° C. for 16 hours, and then cultured at 37° C. in 10% FCS medium containing various amounts of cytokines, sodium stibogluconate, or potassium antimonyl tartrate for 3-6 days as indicated. The cell numbers in proliferation assays were determined by an MTT assay or by microscopic cell counting as indicated.

intracellular Flag-PRL-1 = molecular target: T2, intracellular Flag-PRL-1 (Homo sapiens, UniProt Q93096); experiment: Immunocomplex PTPase assay, Flag-PRL-1 NIH3T3 transfectants; assay type: cell-based; details: cells treated 5 min
T2 construct: expressed in transfected cells
Method: as §1, §2

[3] = tested on: tumor-infiltrating and spleen macrophages (F4/80+), T and NK cells; experiment: Immunohistochemistry of Renca tumors and spleen, Balb/c mice; details: mouse, in vivo
Method: Major internal organs and Renca tumors harvested from mice were fixed in 10% formalin or snap frozen in liquid nitrogen. H & E-stained tissue sections of the fixed samples were prepared and evaluated by microscopy as described previously (Yi, T., M. K. Pathak, D. J. Lindner, M. E. Ketterer, C. Farver, and E. C. Borden. 2002. Anticancer activity of sodium stibogluconate in synergy with IFNs. J Immunol 169:5978). Preparation of frozen tissue sections and immunohistochemistry were performed following established procedures (Joliat, M. J., P. A. Lang, B. L. Lyons, L. Burzenski, M. A. Lynes, T. Yi, J. P. Sundberg, and L. D.
The sections were counterstained with Mayer's hematoxylin prior to microscopic examination. Tissue sections of 2 mice/group were evaluated. The number of immune cells was semi-quantified based on the following scheme: +, 0-1 positive cells/40×field; +, 2-5 positive cells/40×field; ++, 6-10 positive cells/40×field, etc.

T1 sequence (Q12974 whole entry): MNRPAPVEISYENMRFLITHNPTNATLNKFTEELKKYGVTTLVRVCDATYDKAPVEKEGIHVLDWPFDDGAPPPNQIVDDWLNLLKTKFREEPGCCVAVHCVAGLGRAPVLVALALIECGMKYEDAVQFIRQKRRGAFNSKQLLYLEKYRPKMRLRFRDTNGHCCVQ
T2 sequence (Q93096 whole entry): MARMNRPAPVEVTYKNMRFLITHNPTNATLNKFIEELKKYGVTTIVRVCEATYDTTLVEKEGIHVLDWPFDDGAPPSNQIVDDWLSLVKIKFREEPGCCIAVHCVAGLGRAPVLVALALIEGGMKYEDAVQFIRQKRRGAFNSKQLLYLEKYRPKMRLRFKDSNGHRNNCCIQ

## O.O.O.O.O.O.O.O.O.O=C([O-])[C@@H]1[O][Sb]2([O-])([O][Sb]34([OH])[O][C@H]([C@H](O)CO)[C@H]([O]3)[C@H](C(=O)[O-])[O]4)[O][C@H]([C@H](O)CO)[C@@H]1[O]2.[Na+].[Na+].[Na+] [sodium stibogluconate]
Intracellular Flag-PRL-2
  time required for full removal of effect on intracellular PRL-2 activity: at least 24 hours
Intracellular Flag-PRL-2; cells treated 5 min
  PTPase activity of immunocomplexes from treated Flag-PRL-2 transfectants: lack of PTPase activity
[1]; 12 mg Sb daily (440 mg Sb/kg daily)
  tolerability: well tolerated with no serious side effects
[1]; approximately 700-800 mg Sb/kg
  tolerated daily dose in mice, pilot study: 20 mg Sb
[1]; day 25
  survival of WM9-inoculated nude mice: survived until the end of the study
WiT49-N1 cells
  sensitivity of WiT49-N1 cells: sensitive; also recorded: complete or near complete killing
Jurkat cells
  IFN-gamma secretion by Jurkat T cells: increased amounts of IFN-gamma
DS cells
  activity against DS cells: modest activity
[2]
  cell killing of the cell lines: near-complete cell killing
Baf3 cells; 1,000 μg/ml
  IL-3-induced Baf3 growth: suppressed
Baf3 cells; day 3 culture
  cell proliferation and viability in the absence of IL-3: failed to support cell proliferation or maintain cell viability
Intracellular Flag-PRL-1
  PTPase activity of immunocomplexes from treated Flag-PRL-1 transfectants: little PTPase activities
[3]
  numbers of tumor-infiltrating T cells or NK cells: little effect
